# System: not given
# Assay: not given
# Conditions: not given
row,melting point,SMILES
1,223 to 225 °C (dec.),Cl.Oc1ccc(Nc2ncncc2C#Cc2ccccc2)cc1
2,220 to 230 °C (dec.),COc1ccc(C#Cc2cnc(N)nc2Nc2ccc(O)cc2)cc1.Cl
3,151 to 155 °C,"O[C@H]1CC[C@H](Nc2ncncc2C#Cc2ccc(Cl)cc2)CC1 (hydrate or solvate) [Example 4, 5-(4-chlorophenylethynyl)-4-(trans-4-hydroxycyclohexylamino) pyrimidine]"
4,215 to 218 °C,"Nc1ncc(C#Cc2ccc(Cl)cc2)c(N[C@H]2CC[C@H](O)CC2)n1 [Example 12, 2-amino-5-(4-chlorophenylethynyl)-4-(trans-4-hydroxycyclohexylamino)pyrimidine]"
5,176 to 180 °C,"Nc1ncc(C#Cc2ccc(Cl)cc2)c(NCCOCCO)n1 [Example 14, 2-amino-5-(4-chlorophenylethynyl)-4-[2-(2-hydroxyethoxy)ethylamino]pyrimidine]"
6,128 to 129 °C,"Nc1ncc(C#Cc2ccccc2)c(NCCOCCO)n1 [Example 19, 2-amino-4-[2-(2-hydroxyethoxy)ethylamino]-5-phenylethynyl pyrimidine]"
7,168 to 172 °C,"Nc1ncc(C#Cc2ccc(Cl)cc2)c(OC2CCC(=O)CC2)n1 [Example 41, 2-amino-5-(4-chlorophenylethynyl)-4-(4-oxocyclohexyloxy) pyrimidine]"

# System: PC12 cells
# Assay: Choline acetyltransferase (ChAT) assay in NGF-treated PC12 cells
# Format: cell-based, rat
# Conditions: 3 days incubation with test compound, versus NGF alone
# Method: Cultured PC12 cells (rat adrenal pheochromocytoma from ATCC) have receptors for NGF. Responses include promotion of neurite outgrowth and elevation of choline acetyltransferase (ChAT) (L. A. Greene and A. S. Tischler, Cell Neurobiol., 3, 373 (1982)).
# The following assay is modified from that described in H L White and P W Scates, Neurochem. Res., 16, 63 (1991). PC12 cells were cultured at 37° C. in RPMI supplemented with HEPES buffer, pH7.5 (to 10 mM), fetal bovine serum, horse serum, glutamine, penicillin, streptomycin and non-essential amino acids. Cultures were split 1:3 every 3 to 4 days. Exponentially dividing cells were plated into fresh medium on collagen-coated 12-well plastic dishes (10^5 cells/well). After allowing one day for cell attachment, the medium was replaced with low serum medium, with or without test compounds with each condition in triplicate. The medium may contain up to 0.2% ethanol, which was used as a solvent for most compounds tested. Cells were examined for morphological changes using an Olympus IMT-2 inverted research microscope. After 3 days incubation with test compounds, medium was removed and replaced with 0.2 ml of lysis and ChAT assay mixture. The plates were incubated at 37° C. for 2 hours and then placed into a freezer at −20° C.
# Compounds are judged NGF-like in this primary screen if they (1) increase the activity of ChAT, (2) enhance NGF-stimulated neurite outgrowth or (3) potentiate or appear additive with the action of NGF itself.
# The assay mixture contained 100 mM phosphate, pH7.4, 0.1% NP40, 150 mM NaCl, 1.5 mM choline, 10 mM EDTA, 0.1 mM eserine, 0.1 mM acetyl-coenzyme A and about 0.5 uCi (40–70 Ci/mol) [14C]acetyl-coenzyme A in each ml of mixture. Thawed and lysed cell reaction mixtures were diluted to 1 ml with water and transferred to 7 ml scintillation vials containing 5 ml of extraction/scintillation fluid solution (50 mg triphenyl borate, 50 mg PPO, 20 mg POPOP per 100 ml of 20% acetonitrile/80% toluene) and vortexed for 10 seconds. After all 20 diluted well contents were transferred and mixed, all the vials were vortexed again for 30 seconds, rotated for about 2 hours, and then vortexed once more. The vials were centrifuged at 3000 rpm (rmax.=16 cm) for 15 minutes and then counted in a Beckman LS6500 scintillation counter. Background counts from reaction mixtures with extracts from non-stimulated cells (no NGF and no test compound) were subtracted from reaction product counts before comparisons of ChAT activities were made.
# The following data were obtained for representative compounds of the present invention which (1) increased the activity of choline acetyltransferase ChAT), (2) enhanced NGF-stimulated neurite outgrowth and/or (3) potentiated or appeared additive with the action of NGF itself. The concentration at which the test compound doubled the ChAT activity over the activity with NGF alone (no test compound) was recorded as the EC2x value.
row,SMILES,EC2× (concentration at which the test compound doubled the ChAT activity over the activity with NGF alone) [µM]
1,"O[C@H]1CC[C@H](Nc2ncncc2C#Cc2ccc(Cl)cc2)CC1 [Example 4, 5-(4-chlorophenylethynyl)-4-(trans-4-hydroxycyclohexylamino) pyrimidine]",0.2
2,"Nc1ncc(C#Cc2ccccc2)c(N[C@H]2CC[C@H](O)CC2)n1 [Example 9, 2-amino-4-(trans-4-hydroxycyclohexylamino)-5-phenylethynylpyrimidine]",0.1
3,"Nc1ncc(C#Cc2ccc(Cl)cc2)c(N[C@H]2CC[C@H](O)CC2)n1 [Example 12, 2-amino-5-(4-chlorophenylethynyl)-4-(trans-4-hydroxycyclohexylamino)pyrimidine]",0.2
4,"Nc1ncc(C#Cc2ccc(Cl)cc2)c(NCCO)n1 [Example 13, 2-amino-5-(4-chlorophenylethynyl)-4-(2-hyroxyethylamino) pyrimidine]",0.3
5,"Nc1ncc(C#Cc2ccc(Cl)cc2)c(NCCOCCO)n1 [Example 14, 2-amino-5-(4-chlorophenylethynyl)-4-[2-(2-hydroxyethoxy)ethylamino]pyrimidine]",0.5
6,"Nc1ncc(C#Cc2ccc(Cl)cc2)c(N[C@H]2CC[C@@H](O)CC2)n1 [Example 23, 2-amino-5-(4-chlorophenylethynyl)-4-(4-cis-hydroxycyclohexylamino)pyrimidine]",0.3
7,"CCc1ccc(C#Cc2cnc(N)nc2N[C@H]2CC[C@H](O)CC2)cc1.Cl [Example 26, 2-amino-5-(4-ethylphenylethynyl)-4-(4-trans-hydroxycyclohexylamino) pyrimidine hydrochloride]",0.2

# From patent US7205297B2, “Substituted 5-alkynyl pyrimidines having neurotrophic activity” (Krenitsky Pharmaceuticals, Inc., priority 2000, dated 2007)
